Experiments:
Parameters in all cases: scale not given: the % may be the effect or the level left
[1] = molecular target: Serine/threonine-protein kinase DCLK1 (Homo sapiens) (UniProt O15075); assay: Inhibition of DCAMKL1 assessed as enzyme activity at 1 uM relative to untreated control
[2] = molecular target: Serine/threonine-protein kinase DCLK3 (Homo sapiens) (UniProt Q9C098); assay: Inhibition of DCAMKL3 assessed as enzyme activity at 1 uM relative to untreated control
[3] = molecular target: LIM domain kinase 1 (Homo sapiens) (UniProt P53667); assay: Inhibition of LIMK1 assessed as enzyme activity at 1 uM relative to untreated control
[4] = molecular target: Serine/threonine-protein kinase pim-1 (Homo sapiens) (UniProt P11309); assay: Inhibition of PIM1 assessed as enzyme activity at 1 uM relative to untreated control
[5] = molecular target: High affinity nerve growth factor receptor (Homo sapiens) (UniProt P04629); assay: Inhibition of TRKA assessed as enzyme activity at 1 uM relative to untreated control
[6] = molecular target: Mitogen-activated protein kinase kinase kinase kinase 2 (Homo sapiens) (UniProt Q12851); assay: Inhibition of MAP4K2 assessed as enzyme activity at 1 uM relative to untreated control
[7] = molecular target: Cyclin-dependent kinase 17 (Homo sapiens) (UniProt Q00537); assay: Inhibition of PCTK2 assessed as enzyme activity at 1 uM relative to untreated control
[8] = molecular target: Mitogen-activated protein kinase kinase kinase 10 (Homo sapiens) (UniProt Q02779); assay: Inhibition of MLK2 assessed as enzyme activity at 1 uM relative to untreated control
[9] = molecular target: Protein-tyrosine kinase 6 (Homo sapiens) (UniProt Q13882); assay: Inhibition of PTK6 assessed as enzyme activity at 1 uM relative to untreated control
[10] = molecular target: Cyclin-dependent kinase 15 (Homo sapiens) (UniProt Q96Q40); assay: Inhibition of PFTAIRE2 assessed as enzyme activity at 1 uM relative to untreated control
[11] = molecular target: Dual specificity testis-specific protein kinase 1 (Homo sapiens) (UniProt Q15569); assay: Inhibition of TESK1 assessed as enzyme activity at 1 uM relative to untreated control
[12] = molecular target: Ribosomal protein S6 kinase alpha-1 (Homo sapiens) (UniProt Q15418); assay: Inhibition of RPS6KA1 kinase domain 2 assessed as enzyme activity at 1 uM relative to untreated control
[13] = molecular target: Calcium/calmodulin-dependent protein kinase type II subunit gamma (Homo sapiens) (UniProt Q13555); assay: Inhibition of CAMK2G assessed as enzyme activity at 1 uM relative to untreated control
[14] = molecular target: Casein kinase II subunit alpha (Homo sapiens) (UniProt P68400); assay: Inhibition of CSNK2A1 assessed as enzyme activity at 1 uM relative to untreated control
[15] = molecular target: Cyclin-dependent kinase 2 (Homo sapiens) (UniProt P24941); assay: Inhibition of CDK2 assessed as enzyme activity at 1 uM relative to untreated control
[16] = tested on: Tyrosine-protein kinase ABL1 (Homo sapiens), P00519 [H396P]; assay: Inhibition of ABL1 H396P mutant assessed as enzyme activity at 1 uM relative to untreated control
[17] = molecular target: 5'-AMP-activated protein kinase catalytic subunit alpha-1 (Homo sapiens) (UniProt Q13131); assay: Inhibition of AMPKalpha1 assessed as enzyme activity at 1 uM relative to untreated control
[18] = molecular target: Activin receptor type-1-like (Homo sapiens) (UniProt P37023); assay: Inhibition of ACVRL1 assessed as enzyme activity at 1 uM relative to untreated control
[19] = molecular target: Serine/threonine-protein kinase PAK 3 (Homo sapiens) (UniProt O75914); assay: Inhibition of PAK3 assessed as enzyme activity at 1 uM relative to untreated control
[20] = molecular target: Mitogen-activated protein kinase 8 (Homo sapiens) (UniProt P45983); assay: Inhibition of JNK1 assessed as enzyme activity at 1 uM relative to untreated control
[21] = molecular target: Receptor-interacting serine/threonine-protein kinase 2 (Homo sapiens) (UniProt O43353); assay: Inhibition of RIPK2 assessed as enzyme activity at 1 uM relative to untreated control
[22] = molecular target: Casein kinase I isoform delta (Homo sapiens) (UniProt P48730); assay: Inhibition of CSNK1D assessed as enzyme activity at 1 uM relative to untreated control
[23] = molecular target: LIM domain kinase 2 (Homo sapiens) (UniProt P53671); assay: Inhibition of LIMK2 assessed as enzyme activity at 1 uM relative to untreated control
[24] = molecular target: Phosphatidylinositol 4-phosphate 3-kinase C2 domain-containing subunit beta (Homo sapiens) (UniProt O00750); assay: Inhibition of PIK3C2B assessed as enzyme activity at 1 uM relative to untreated control
[25] = molecular target: Ephrin type-A receptor 4 (Homo sapiens) (UniProt P54764); assay: Inhibition of EPHA4 assessed as enzyme activity at 1 uM relative to untreated control
[26] = tested on: Mast/stem cell growth factor receptor Kit (Homo sapiens), P10721 [V559D]; assay: Inhibition of KIT V559D mutant assessed as enzyme activity at 1 uM relative to untreated control
[27] = molecular target: Serine/threonine-protein kinase Chk2 (Homo sapiens) (UniProt O96017); assay: Inhibition of CHEK2 assessed as enzyme activity at 1 uM relative to untreated control
[28] = molecular target: MAP kinase-activated protein kinase 5 (Homo sapiens) (UniProt Q8IW41); assay: Inhibition of MAPKAPK5 assessed as enzyme activity at 1 uM relative to untreated control
[29] = molecular target: Serine/threonine-protein kinase MRCK gamma (Homo sapiens) (UniProt Q6DT37); assay: Inhibition of DMPK2 assessed as enzyme activity at 1 uM relative to untreated control
[30] = molecular target: Epithelial discoidin domain-containing receptor 1 (Homo sapiens) (UniProt Q08345); assay: Inhibition of DDR1 dyscoidin domain assessed as enzyme activity at 1 uM relative to untreated control
[31] = molecular target: Dual specificity tyrosine-phosphorylation-regulated kinase 1B (Homo sapiens) (UniProt Q9Y463); assay: Inhibition of DYRK1B assessed as enzyme activity at 1 uM relative to untreated control
[32] = molecular target: Interleukin-1 receptor-associated kinase 3 (Homo sapiens) (UniProt Q9Y616); assay: Inhibition of IRAK3 assessed as enzyme activity at 1 uM relative to untreated control
[33] = molecular target: Epidermal growth factor receptor (Homo sapiens) (UniProt P04626+P00533+Q15303+P21860); assay: Inhibition of EGFR L747-T751del,Sins mutant assessed as enzyme activity at 1 uM relative to untreated control; assay type: protein assay
[34] = molecular target: Serine/threonine-protein kinase 38-like (Homo sapiens) (UniProt Q9Y2H1); assay: Inhibition of NDR2 assessed as enzyme activity at 1 uM relative to untreated control
[35] = molecular target: Mitogen-activated protein kinase 9 (Homo sapiens) (UniProt P45984); assay: Inhibition of JNK2 assessed as enzyme activity at 1 uM relative to untreated control
[36] = molecular target: Serine/threonine-protein kinase 10 (Homo sapiens) (UniProt O94804); assay: Inhibition of LOK assessed as enzyme activity at 1 uM relative to untreated control
[37] = molecular target: Receptor-type tyrosine-protein kinase FLT3 (Homo sapiens) (UniProt P36888); assay: Inhibition of FLT3 assessed as enzyme activity at 1 uM relative to untreated control

Chain of Phosphatidylinositol 4-phosphate 3-kinase C2 domain-containing subunit beta (Homo sapiens) (O00750 whole entry, the tested form may be a part): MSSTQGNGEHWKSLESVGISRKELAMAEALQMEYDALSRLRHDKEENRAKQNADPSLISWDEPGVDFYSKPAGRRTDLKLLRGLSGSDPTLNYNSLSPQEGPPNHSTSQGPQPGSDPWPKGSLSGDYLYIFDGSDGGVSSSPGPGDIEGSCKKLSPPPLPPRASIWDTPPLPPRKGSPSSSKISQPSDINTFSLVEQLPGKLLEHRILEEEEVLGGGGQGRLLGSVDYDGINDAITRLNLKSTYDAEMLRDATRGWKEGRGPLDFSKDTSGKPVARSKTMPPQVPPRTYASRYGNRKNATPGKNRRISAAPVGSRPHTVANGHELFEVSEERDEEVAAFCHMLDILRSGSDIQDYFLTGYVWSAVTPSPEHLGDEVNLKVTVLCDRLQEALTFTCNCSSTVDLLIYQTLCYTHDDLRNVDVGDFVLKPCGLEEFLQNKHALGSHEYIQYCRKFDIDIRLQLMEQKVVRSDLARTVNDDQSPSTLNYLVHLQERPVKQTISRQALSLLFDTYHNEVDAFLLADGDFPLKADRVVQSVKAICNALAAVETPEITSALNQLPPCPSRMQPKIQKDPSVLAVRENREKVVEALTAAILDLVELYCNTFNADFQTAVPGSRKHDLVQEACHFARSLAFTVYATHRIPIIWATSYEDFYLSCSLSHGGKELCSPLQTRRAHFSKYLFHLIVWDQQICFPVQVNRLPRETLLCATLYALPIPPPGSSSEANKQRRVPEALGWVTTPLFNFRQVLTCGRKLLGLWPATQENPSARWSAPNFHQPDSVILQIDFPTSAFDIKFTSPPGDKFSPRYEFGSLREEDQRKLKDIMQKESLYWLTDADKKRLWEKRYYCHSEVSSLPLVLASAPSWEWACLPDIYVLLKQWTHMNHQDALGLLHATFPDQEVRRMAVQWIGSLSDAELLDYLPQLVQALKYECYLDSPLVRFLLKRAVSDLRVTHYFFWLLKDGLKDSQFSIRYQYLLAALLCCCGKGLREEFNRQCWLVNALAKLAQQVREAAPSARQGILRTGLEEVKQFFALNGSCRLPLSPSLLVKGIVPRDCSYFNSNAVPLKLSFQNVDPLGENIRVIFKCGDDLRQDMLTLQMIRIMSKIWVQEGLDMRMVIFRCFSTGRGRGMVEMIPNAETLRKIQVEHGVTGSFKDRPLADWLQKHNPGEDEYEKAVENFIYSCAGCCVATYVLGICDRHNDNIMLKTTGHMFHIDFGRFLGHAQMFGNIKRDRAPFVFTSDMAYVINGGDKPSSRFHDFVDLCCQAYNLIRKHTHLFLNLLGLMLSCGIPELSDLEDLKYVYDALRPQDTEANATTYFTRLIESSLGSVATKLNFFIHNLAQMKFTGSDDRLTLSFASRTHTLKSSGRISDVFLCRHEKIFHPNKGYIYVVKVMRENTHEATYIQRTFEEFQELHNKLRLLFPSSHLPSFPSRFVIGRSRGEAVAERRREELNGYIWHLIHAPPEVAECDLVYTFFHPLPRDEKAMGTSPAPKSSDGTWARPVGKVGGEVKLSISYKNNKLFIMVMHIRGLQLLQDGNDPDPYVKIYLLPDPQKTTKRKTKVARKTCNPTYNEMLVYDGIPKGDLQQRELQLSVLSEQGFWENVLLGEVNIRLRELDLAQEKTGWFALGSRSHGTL
Chain of LIM domain kinase 1 (Homo sapiens) (P53667 whole entry, looked up, the tested form may be a part): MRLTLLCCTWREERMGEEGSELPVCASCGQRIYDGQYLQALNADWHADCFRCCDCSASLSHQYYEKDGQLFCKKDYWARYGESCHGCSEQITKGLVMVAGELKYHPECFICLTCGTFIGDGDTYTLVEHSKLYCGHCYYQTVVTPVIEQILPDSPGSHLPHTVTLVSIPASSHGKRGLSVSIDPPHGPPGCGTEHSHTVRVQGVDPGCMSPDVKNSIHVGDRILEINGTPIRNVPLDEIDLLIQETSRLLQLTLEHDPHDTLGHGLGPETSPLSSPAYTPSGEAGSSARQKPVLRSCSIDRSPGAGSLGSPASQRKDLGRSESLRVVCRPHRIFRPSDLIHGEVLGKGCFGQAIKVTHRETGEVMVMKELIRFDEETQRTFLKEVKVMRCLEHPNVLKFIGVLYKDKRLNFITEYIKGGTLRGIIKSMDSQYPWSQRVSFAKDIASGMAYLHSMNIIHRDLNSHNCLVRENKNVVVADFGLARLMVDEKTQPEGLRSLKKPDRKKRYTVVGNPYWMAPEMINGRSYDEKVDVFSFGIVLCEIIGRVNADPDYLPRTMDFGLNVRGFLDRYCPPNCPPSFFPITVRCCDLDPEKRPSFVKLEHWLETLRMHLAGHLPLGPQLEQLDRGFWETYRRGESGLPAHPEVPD
Chain of Casein kinase II subunit alpha (Homo sapiens) (P68400 whole entry, looked up): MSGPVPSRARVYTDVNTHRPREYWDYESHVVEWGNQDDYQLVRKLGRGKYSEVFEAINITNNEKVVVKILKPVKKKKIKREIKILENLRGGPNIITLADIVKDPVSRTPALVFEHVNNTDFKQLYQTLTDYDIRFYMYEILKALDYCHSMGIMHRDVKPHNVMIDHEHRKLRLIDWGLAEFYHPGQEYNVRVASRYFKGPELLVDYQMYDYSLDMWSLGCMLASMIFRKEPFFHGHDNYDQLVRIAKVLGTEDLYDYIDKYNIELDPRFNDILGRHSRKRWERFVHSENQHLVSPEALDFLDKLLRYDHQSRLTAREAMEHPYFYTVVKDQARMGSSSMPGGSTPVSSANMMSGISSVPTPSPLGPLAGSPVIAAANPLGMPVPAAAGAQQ
Chain of Ribosomal protein S6 kinase alpha-1 (Homo sapiens) (Q15418 whole entry, the tested form may be a part): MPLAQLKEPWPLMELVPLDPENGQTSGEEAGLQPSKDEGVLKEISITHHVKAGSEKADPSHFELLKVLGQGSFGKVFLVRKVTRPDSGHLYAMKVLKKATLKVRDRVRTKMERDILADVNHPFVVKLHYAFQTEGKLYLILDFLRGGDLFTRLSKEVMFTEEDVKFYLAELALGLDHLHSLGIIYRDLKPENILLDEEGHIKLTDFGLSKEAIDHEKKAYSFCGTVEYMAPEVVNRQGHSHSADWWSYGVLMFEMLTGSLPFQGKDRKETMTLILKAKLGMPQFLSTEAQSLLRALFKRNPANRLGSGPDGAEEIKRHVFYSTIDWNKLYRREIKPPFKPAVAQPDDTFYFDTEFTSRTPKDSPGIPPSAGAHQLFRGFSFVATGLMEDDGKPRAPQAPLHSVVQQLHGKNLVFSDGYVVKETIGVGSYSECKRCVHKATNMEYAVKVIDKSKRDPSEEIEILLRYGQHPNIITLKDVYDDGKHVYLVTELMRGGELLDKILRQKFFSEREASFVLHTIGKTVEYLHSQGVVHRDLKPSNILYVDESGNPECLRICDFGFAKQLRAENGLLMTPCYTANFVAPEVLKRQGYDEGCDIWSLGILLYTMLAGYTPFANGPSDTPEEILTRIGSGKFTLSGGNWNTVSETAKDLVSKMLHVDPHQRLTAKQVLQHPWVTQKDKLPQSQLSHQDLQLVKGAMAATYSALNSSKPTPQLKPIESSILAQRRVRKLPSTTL
Chain of Interleukin-1 receptor-associated kinase 3 (Homo sapiens) (Q9Y616 whole entry): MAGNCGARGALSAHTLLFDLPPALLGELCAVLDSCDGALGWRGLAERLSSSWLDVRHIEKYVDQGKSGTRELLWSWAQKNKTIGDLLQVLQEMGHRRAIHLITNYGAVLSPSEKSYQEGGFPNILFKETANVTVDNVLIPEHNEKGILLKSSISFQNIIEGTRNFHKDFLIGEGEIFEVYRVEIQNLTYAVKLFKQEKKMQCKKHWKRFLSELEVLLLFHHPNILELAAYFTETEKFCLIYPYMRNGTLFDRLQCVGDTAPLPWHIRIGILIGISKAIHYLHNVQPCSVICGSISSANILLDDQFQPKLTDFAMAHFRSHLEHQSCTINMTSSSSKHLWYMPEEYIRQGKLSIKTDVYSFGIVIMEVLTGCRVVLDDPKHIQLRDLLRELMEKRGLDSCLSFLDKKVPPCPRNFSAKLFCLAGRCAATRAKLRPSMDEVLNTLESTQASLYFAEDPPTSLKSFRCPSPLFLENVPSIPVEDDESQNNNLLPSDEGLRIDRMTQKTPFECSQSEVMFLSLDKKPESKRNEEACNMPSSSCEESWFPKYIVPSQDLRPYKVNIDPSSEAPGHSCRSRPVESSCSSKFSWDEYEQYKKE
Chain of Mast/stem cell growth factor receptor Kit (Homo sapiens), P10721 [V559D] (P10721 whole entry V559D): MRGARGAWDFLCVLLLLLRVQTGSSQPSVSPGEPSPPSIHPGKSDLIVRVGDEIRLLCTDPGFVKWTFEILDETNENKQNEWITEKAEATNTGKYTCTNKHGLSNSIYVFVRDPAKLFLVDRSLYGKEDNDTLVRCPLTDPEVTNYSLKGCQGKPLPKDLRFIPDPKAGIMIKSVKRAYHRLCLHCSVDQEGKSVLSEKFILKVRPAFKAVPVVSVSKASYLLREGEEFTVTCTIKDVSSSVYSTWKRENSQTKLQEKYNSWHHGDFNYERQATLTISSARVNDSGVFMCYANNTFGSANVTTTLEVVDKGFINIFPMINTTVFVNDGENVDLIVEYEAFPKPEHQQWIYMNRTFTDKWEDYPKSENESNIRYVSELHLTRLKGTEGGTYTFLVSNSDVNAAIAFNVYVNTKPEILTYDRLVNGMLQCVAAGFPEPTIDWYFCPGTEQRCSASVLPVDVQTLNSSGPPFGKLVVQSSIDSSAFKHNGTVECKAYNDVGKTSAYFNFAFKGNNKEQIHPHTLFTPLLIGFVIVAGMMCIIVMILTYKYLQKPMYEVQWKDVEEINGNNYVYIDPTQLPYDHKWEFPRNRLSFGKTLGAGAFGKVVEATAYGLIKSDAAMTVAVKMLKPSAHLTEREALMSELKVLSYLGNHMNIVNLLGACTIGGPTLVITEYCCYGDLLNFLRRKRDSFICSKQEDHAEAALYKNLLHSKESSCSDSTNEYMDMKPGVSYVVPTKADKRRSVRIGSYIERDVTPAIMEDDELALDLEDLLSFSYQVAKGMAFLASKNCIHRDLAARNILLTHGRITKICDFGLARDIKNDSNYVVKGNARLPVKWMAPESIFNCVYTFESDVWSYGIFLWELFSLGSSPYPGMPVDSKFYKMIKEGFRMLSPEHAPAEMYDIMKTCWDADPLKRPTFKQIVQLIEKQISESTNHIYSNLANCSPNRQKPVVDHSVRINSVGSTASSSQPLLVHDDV

For `Cc1ccc2c(Nc3ccc(Cl)cc3)nccc2c1Nc1ncccc1-c1ncnc2[nH]cnc12.Cl.Cl.Cl`, the Activity [1] was 80%, the Activity [2] was 100% and the Activity [3] was 55%. For the same compound, the Activity [4] was 93%, the Activity [5] was 15% and the Activity [6] was 100%. The Activity [7] was 100%, the Activity [8] was 99% and the Activity [9] was 13%. For the same compound, the Activity [10] was 80%, the Activity [11] was 21% and the Activity [12] was 96%. For the same compound, the Activity [13] was 98%, the Activity [14] was 100% and the Activity [15] was 100%. For the same compound, the Activity [16] was 84%, the Activity [17] was 89% and the Activity [18] was 92%. For the same compound, the Activity [19] was 87%, the Activity [20] was 2.7% and the Activity [21] was 100%. For the same compound, the Activity [22] was 99%, the Activity [23] was 98% and the Activity [24] was 100%. The Activity [25] was 22%, the Activity [26] was 36% and the Activity [27] was 100%. The Activity [28] was 64%, the Activity [29] was 99% and the Activity [30] was 0.1%. The Activity [31] was 100%, the Activity [32] was 81% and the Activity [33] was 98%. The Activity [34] was 100%, the Activity [35] was 86% and the Activity [36] was 0%. The Activity [37] was 62%.

— ChEMBL document CHEMBL1155237, “Selective inhibitors of the mutant B-Raf pathway: discovery of a potent and orally bioavailable aminoisoquinoline” (J Med Chem, 2009)
